Test system: IL-1β production in PMA-differentiated THP-1 cells
Experiment: IL-1β production in PMA-differentiated THP-1 cells stimulated with gramicidin (hTHP-1 assay, 2% fetal bovine serum; Procedures 1-3)
Format: cell-based, human
Settings: Table B1; hTHP-1 assay containing 2% fetal bovine serum, gramicidin stimulation, IL-1β readout; read-out: hTHP-1 IC50 (average)
Experimental: The following protocol is suitable for testing the activity of the compounds disclosed herein.
Procedure 1: IL-1β Production in PMA-Differentiated THP-1 Cells Stimulated with Gramicidin.
THP-1 cells were purchased from the American Type Culture Collection and sub-cultured according to instructions from the supplier. Cells were cultured in complete RPMI 1640 (containing 10% heat inactivated FBS, penicillin (100 units/ml) and streptomycin (100 μg/ml)), and maintained in log phase prior to experimental setup. Prior to the experiment, compounds were dissolved in dimethyl sulfoxide (DMSO) to generate a 30 mM stock. The compound stock was first pre-diluted in DMSO to 3, 0.34, 0.042 and 0.0083 mM intermediate concentrations and subsequently spotted using Echo550 liquid handler into an empty 384-well assay plate to achieve desired final concentration (e.g. 100, 33, 11, 3.7, 1.2, 0.41, 0.14, 0.046, 0.015, 0.0051, 0.0017 μM). DMSO was backfilled in the plate to achieve a final DMSO assay concentration of 0.37%. The plate was then sealed and stored at room temperature until required.
THP-1 cells were treated with PMA (Phorbol 12-myristate 13-acetate) (20 ng/ml) for 16-18 hours. On the day of the experiment the media was removed and adherent cells were detached with trypsin for 5 minutes. Cells were then harvested, washed with complete RPMI 1640, spun down, and resuspended in RPMI 1640 (containing 2% heat inactivated FBS, penicillin (100 units/ml) and streptomycin (100 μg/ml). The cells were plated in the 384-well assay plate containing the spotted compounds at a density of 50,000 cells/well (final assay volume 50 μl). Cells were incubated with compounds for 1 hour and then stimulated with gramicidin (5 μM) (Enzo) for 2 hours. Plates were then centrifuged at 340 g for 5 min. Cell free supernatant (40 μL) was collected using a 96-channel PlateMaster (Gilson) and the production of IL-1β was evaluated by HTRF (cisbio). The plates were incubated for 18 h at 4° C. and read using the preset HTRF program (donor emission at 620 nm, acceptor emission at 668 nm) of the SpectraMax i3x spectrophotometer (Molecular Devices, software SoftMax 6). A vehicle only control and a dose titration of CRID3 (100-0.0017 μM) were run concurrently with each experiment.
Procedure 2: IL-1β Production in PMA-Differentiated THP-1 Cells Stimulated with Gramicidin.
THP-1 cells were purchased from the American Type Culture Collection and sub-cultured according to instructions from the supplier. Prior to experiments, cells were cultured in complete RPMI 1640 (containing 10% heat inactivated FBS, penicillin (100 units/ml) and streptomycin (100 μg/ml)), and maintained in log phase prior to experimental setup. Prior to the experiment THP-1 were treated with PMA (Phorbol 12-myristate 13-acetate) (20 ng/ml) for 16-18 hours. Compounds were dissolved in dimethyl sulfoxide (DMSO) to generate a 30 mM stock. On the day of the experiment the media was removed and adherent cells were detached with trypsin for 5 minutes. Cells were then harvested, washed with complete RPMI 1640, spun down, resuspended in RPMI 1640 (containing 2% heat inactivated FBS, penicillin (100 units/ml) and streptomycin (100 μg/ml) . The cells were plated in a 384-well plate at a density of 50,000 cells/well (final assay volume 50 μl). Compounds were first dissolved in assay medium to obtain a 5× top concentration of 500 μM. 10 step dilutions (1:3) were then undertaken in assay medium containing 1.67% DMSO. 5× compound solutions were added to the culture medium to achieve desired final concentration (e.g. 100, 33, 11, 3.7, 1.2, 0.41, 0.14, 0.046, 0.015, 0.0051, 0.0017 μM). Final DMSO concentration was at 0.37%. Cells were incubated with compounds for 1 hour and then stimulated with gramicidin (5 μM) (Enzo) for 2 hours. Plates were then centrifuged at 340 g for 5 min. Cell free supernatant (40 μL) was collected using a 96-channel PlateMaster (Gilson) and the production of IL-1β was evaluated by HTRF (cisbio). […]

SMILES | IC50
CC(C)(O)c1ncc(S(N)(=O)=NC(=O)Nc2c3c(cc4c2OCC4)CCC3)s1 (single isomer, unassigned) [Example 343, (R) or (S)-2-(2-hydroxy-propan-2-yl)-N′-((3,5,6,7-tetrahydro-2H-indeno[5,6-b]furan-8-yl)carbamoyl)-thiazole-5-sulfonimidamide] | 40 to 200 nM
CC(C)(O)c1cnc(S(N)(=O)=NC(=O)Nc2c3c(cc4c2OCC4)CCC3)s1 (single isomer, unassigned) [Example 350, (R) or (S)-5-(2-hydroxy-propan-2-yl)-N′-((3,5,6,7-tetrahydro-2H-indeno-[5,6-b]furan-8-yl)carbam-oyl)thiazole-2-sulfonimid-amide] | 40 to 200 nM
CC(C)(O)c1csc(S(N)(=O)=NC(=O)Nc2c3c(cc4c2OCC4)CCC3)n1 (single isomer, unassigned) [Example 354, (R) or (S)-4-(2-hydroxy-propan-2-yl)-N′-((3,5,6,7-tetrahydro-2H-indeno-[5,6-b]furan-8-yl)carbam-oyl)thiazole-2-sulfonimid-amide] | 8 to 40 nM
CN(C)S(=O)(=NC(=O)Nc1c2c(cc3c1CCC3)CCC2)c1cc(C(C)(C)O)cs1 (single isomer, unassigned) [Example 357, (R) or (S)-N′-((1,2,3,5,6,7-hexahydro-s-indacen-4-yl)-carbamoyl)-4-(2-hydroxy-propan-2-yl)-N,N-dimeth-ylthiophene-2-sulfonimid-amide] | 5000 to 30000 nM
CC(C)(O)c1ncc(S(N)(=O)=NC(=O)Nc2c3c(cc4c2C(=O)CC4)CCC3)s1 (single isomer, unassigned) [Example 364, (R) or (S)-2-(2-Hydroxy-propan-2-yl)-N′-((3-oxo-1,2,3,5,6,7-hexahydro-s-indacen-4-yl)carbamoyl)-thiazole-5-sulfonimidamide] | 40 to 200 nM
COC1CN(Cc2ccc(S(N)(=O)=NC(=O)Nc3c4c(cc5c3CCC5)CCC4)cc2)C1 (single isomer, unassigned) [Example 379, (R) or (S)-N′-((1,2,3,5,6,7-hexahydro-s-indacen-4-yl)carbamoyl)-4-((3-methoxyazelidin-1-yl)-methyl)benzenesulfonimid-amide] | 1000 to 5000 nM
CN(C)Cc1cc(F)c(S(N)(=O)=NC(=O)Nc2c3c(cc4c2CCC4)CCC3)s1 (single isomer, unassigned) [Example 381, (R) or (S)-5-((dimethyl-amino)methyl)-3-fluoro-N′-((1,2,3,5,6,7-hexa-hydro-s-indacen-4-yl)-carbamoyl)thiophene-2-sulfonimidamide] | 8 to 40 nM
CC(C)(O)c1cc(F)c(S(N)(=O)=NC(=O)Nc2c3c(cc4c2CCC4)CCC3)s1 (single isomer, unassigned) [Example 385, (R) or (S)-3-fluoro-N′-((1,2,3,5,6,7-hexahydro-s-indacen-4-yl)carbamoyl)-5-(2-hydroxypropan-2-yl)thiophene-2-sulfonimid-amide] | 8 to 40 nM
COC(C)(C)c1ncc(S(N)(=O)=NC(=O)Nc2c3c(cc4c2CCC4)CCC3)s1 (single isomer, unassigned) [Example 388, (R) or (S)-N′-((1,2,3,5,6,7-hexahydro-s-indacen-4-yl)carbamoyl)-2-(2-meth-oxypropan-2-yl)thiazole-5-sulfonimidamide] | 40 to 200 nM
CC(C)(O)c1ncc(S(N)(=O)=NC(=O)Nc2c3c(cc4c2C(O)CC4)CCC3)s1 (single isomer, unassigned) [Example 391, (R, R) or (R, S) or (S, S) or (S, R)-N′-((3-hydroxy-1,2,3,5,6,7-hexahydro-s-indacen-4-yl)carbamoyl)-2-(2-hydroxypropan-2-yl)thiazole-5-sulfonimid-amide] | 200 to 1000 nM
CC(C)(O)c1ncc(S(N)(=O)=NC(=O)Nc2c3c(cc4c2C(O)CC4)CCC3)s1 (single isomer, unassigned) [Example 392, (R, S) or (R, R) or (S, R) or (S, S)-N′-((3-hydroxy-1,2,3,5,6,7-hexahydroxy-indacen-4-yl)carbamoyl)-2-(2-hydroxypropan-2-yl)thiazole-5-sulfonimid-amide] | 200 to 1000 nM
CN1CCc2cc(S(N)(=O)=NC(=O)Nc3c4c(cc5c3CCC5)CCC4)ccc2C1 (single isomer, unassigned) [Example 395, (R) or (S)-N′-((1,2,3,5,6,7-hexahydro-s-indacen-4-yl)carbamoyl)-2-methyl-1,2,3,4-tetrahydroisoquin-oline-6-sulfonimidamide] | 1000 to 5000 nM
CC(C)c1ccc(S(N)(=O)=NC(=O)Nc2c3c(cc4c2CCC4)CCC3)cn1 (single isomer, unassigned) [Example 402, (S) or (R)-N′-((1,2,3,5,6,7-hexahydro-s-indacen-4-yl)carbamoyl)-6-isopropyl-pyridine-3-sulfonimidamide] | 1000 to 5000 nM

Continued, values first:

IC50 | SMILES
40 to 200 nM | CN(C)C(C)(C)c1ccc(S(N)(=O)=NC(=O)Nc2c3c(cc4c2CCC4)CCC3)cc1 (single isomer, unassigned) [Example 361, (R) or (S)-4-(2-(dimethyl-amino)propan-2-yl)-N′-((1,2,3,5,6,7-hexahydro-s-indacen-4-yl)carbamoyl)-benzenesulfonimidamide]
1000 to 5000 nM | CC(=O)N(C)Cc1ccc(S(N)(=O)=NC(=O)Nc2c3c(cc4c2CCC4)CCC3)cc1 (single isomer, unassigned) [Example 366, (R) or (S)-N-(4-N′-((1,2,3,5,6,7-hexahydro-s-indacen-4-yl)carbamoyl)-sulfamidimidoyl)benzyl)-N-methylacetamide]
40 to 200 nM | CC(c1ccc(S(N)(=O)=NC(=O)Nc2c3c(cc4c2CCC4)CCC3)cc1)N(C)C (single isomer, unassigned) [Example 372, (R) or (S)-4-(1-(dimethyl-amino)ethyl)-N′-((1,2,3,5,6,7-hexahydro-s-indacen-4-yl)carbamoyl)-benzenesulfonimidamide]
40 to 200 nM | CC(c1ccc(S(N)(=O)=NC(=O)Nc2c3c(cc4c2CCC4)CCC3)cc1)N(C)C (single isomer, unassigned) [Example 377, (R, R) or (R, S) or (S, S) or (S, R)-4-(1-(dimethyl-amino)ethyl)-N′-((1,2,3,5,6,7-hexahydro-s-indacen-4-yl)carbamoyl)-benzenesulfonimidamide]
1000 to 5000 nM | COCCN(C)Cc1ccc(S(N)(=O)=NC(=O)Nc2c3c(cc4c2CCC4)CCC3)cc1 (single isomer, unassigned) [Example 390, (R) or (S)-N′-((1,2,3,5,6,7-hexahydro-s-indacen-4-yl)carbamoyl)-4-(((2-meth-oxyethyl)(methyl)amino)-methyl)benzenesulfonimid-amide]
200 to 1000 nM | COC(C)(C)c1ccc(S(N)(=O)=NC(=O)Nc2c3c(cc4c2CCC4)CCC3)cc1 (single isomer, unassigned) [Example 399, (R) or (S)-N′-((1,2,3,5,6,7-hexahydro-s-indacen-4-yl)carbamoyl)-4-(2-meth-oxypropan-2-yl)benzene-sulfonimidamide]
1000 to 5000 nM | NCc1ccc(S(N)(=O)=NC(=O)Nc2c3c(cc4c2CCC4)CCC3)cc1 (single isomer, unassigned) [Example 411, (R) or (S)-4-(aminomethyl)-N′-((1,2,3,5,6,7-hexahydro-5-indacen-4-yl)carbamoyl)-benzenesulfonimidamide]

Reference: patent US20230051589A1, “COMPOUNDS AND COMPOSITIONS FOR TREATING CONDITIONS ASSOCIATED WITH NLRP ACTIVITY” (Novartis AG, priority 2018, published 2023)
